Data on six compounds can be found in ChEMBL document CHEMBL1201862, “PubChem BioAssay data set” (2004).

Series [1] in a line: cells.
Series [2] has as its target Dual specificity tyrosine-phosphorylation-regulated kinase 1A (Rattus norvegicus, UniProt Q63470). The format is biochemical, Homo sapiens.
Series [3] deals with T1, Oxysterols receptor LXR-beta (Homo sapiens, UniProt P55055).
T1 sequence (P55055 whole entry): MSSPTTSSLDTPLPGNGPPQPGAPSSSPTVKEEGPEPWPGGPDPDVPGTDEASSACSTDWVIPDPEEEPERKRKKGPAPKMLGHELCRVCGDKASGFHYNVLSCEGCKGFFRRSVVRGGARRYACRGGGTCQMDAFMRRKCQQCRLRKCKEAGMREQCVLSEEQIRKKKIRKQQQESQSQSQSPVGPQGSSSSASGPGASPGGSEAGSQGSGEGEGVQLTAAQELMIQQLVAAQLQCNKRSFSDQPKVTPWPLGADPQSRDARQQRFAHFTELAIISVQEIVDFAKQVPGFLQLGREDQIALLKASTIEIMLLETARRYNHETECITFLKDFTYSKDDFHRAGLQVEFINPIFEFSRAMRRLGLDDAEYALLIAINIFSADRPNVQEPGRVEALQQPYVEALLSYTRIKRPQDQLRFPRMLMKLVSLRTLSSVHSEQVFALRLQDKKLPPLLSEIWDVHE
The format is functional, cell-based.

A short description of series [4]: HEp-2 cell cytotoxicity, dose response, cytotoxicity control for RSV inhibitor project, HTS (AID 2410). The following applies: human respiratory syncytial virus. The format is functional.
Series [5] deals with fMet-Leu-Phe receptor (Homo sapiens, UniProt P21462). Nature of the series: FPR ligands, dose response (AID 519). The format is functional.
Series [6] can be described thus: HepG2 cell cytotoxicity, dose response, cytotoxicity control, cherry-picked samples (AID 1159577). The format is functional, cell-based.
Series [7] in a line: P. falciparum Dd2 growth inhibitors, dose response, SYBR Green, cherry-picked samples (AID 1159567). The format is functional, cell-based.
For series [8], the target named is T2, Corticotropin-releasing factor receptor 2/Corticotropin-releasing factor-binding protein (Homo sapiens, UniProt P24387+Q13324).
T2 sequence (Q13324 whole entry): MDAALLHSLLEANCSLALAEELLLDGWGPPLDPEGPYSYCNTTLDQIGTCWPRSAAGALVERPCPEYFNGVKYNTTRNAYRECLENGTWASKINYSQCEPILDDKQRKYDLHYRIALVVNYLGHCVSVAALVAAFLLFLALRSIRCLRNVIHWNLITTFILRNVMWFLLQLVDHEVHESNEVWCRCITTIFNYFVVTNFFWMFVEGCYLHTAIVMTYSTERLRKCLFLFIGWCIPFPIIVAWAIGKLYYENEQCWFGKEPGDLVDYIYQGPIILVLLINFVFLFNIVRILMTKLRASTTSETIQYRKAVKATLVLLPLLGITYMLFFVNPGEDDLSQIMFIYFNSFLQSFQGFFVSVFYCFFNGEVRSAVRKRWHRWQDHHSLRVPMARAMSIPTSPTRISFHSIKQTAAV
T2 sequence (P24387 whole entry): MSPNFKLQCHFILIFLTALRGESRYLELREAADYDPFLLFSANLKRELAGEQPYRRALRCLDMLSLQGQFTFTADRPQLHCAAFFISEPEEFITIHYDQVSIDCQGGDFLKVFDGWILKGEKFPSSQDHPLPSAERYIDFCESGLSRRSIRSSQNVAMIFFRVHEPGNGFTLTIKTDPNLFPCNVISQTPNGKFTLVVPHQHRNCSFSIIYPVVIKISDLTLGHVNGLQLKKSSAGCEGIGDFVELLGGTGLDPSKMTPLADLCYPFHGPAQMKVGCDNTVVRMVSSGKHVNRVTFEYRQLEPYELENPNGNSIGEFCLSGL
Nature of the series: Dose Response confirmation of uHTS hits for small molecule antagonists of the CRF-binding protein and CRF-R2 receptor complex. The format is functional. The following applies: read-out: IC50_Mean.

For series [9], the target named is Cytochrome P450 3A4 (Homo sapiens, UniProt P08684).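 Note: CYP3A4 tested as one member of a cytochrome P450 panel screen.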
Series [10] is described as follows: CRF-BP/CRF-R2 complex antagonists, dose response, cell-based, uHTS hits, 384-well (AID 651639). The format is functional, Homo sapiens. The settings on record: read-out: IC50_Mean.
Series [11] addresses T2, Corticotropin-releasing factor receptor 2/Corticotropin-releasing factor-binding protein. Nature of the series: activators of CRF receptor 2 with binding protein – uHTS hits, confirmation (AID 602473). The format is functional. The following applies: read-out: EC50_Mean.
The test system of series [12] is HEK293. The series is described as follows: HEK293T cell cytotoxicity, dose response, cytotoxicity control, ATP luminescence, cherry-pick samples (AID 687005).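 Note: cells exposed to compound for 48 hours.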 The format is functional, cell-based. The following applies: Homo sapiens.
Series [13] deals with Prothrombin (Homo sapiens, UniProt P00734). Nature of the series: Thrombin 1536 HTS Dose Response Confirmation. [Related pubchem assays: 1046 (Thrombin 1536 HTS; hits were confirmed in this assay)]. The format is functional.
Series [14] can be described thus: HEK293 Cytotoxicity Assay Measured in Cell-Based System Using Plate Reader - 7071-01_Inhibitor_Dose_CherryPick_Activity_Set2. The format is functional.
A short description of series [15]: Counterscreen for inhibitors of Trypanosoma brucei methionyl tRNA synthetase (MetRS): Luminescence-based cell-based high throughput dose response assay to identify compounds that are cytotoxic to Jurkat human T lymphocyte cells. The format is functional. Background: The purpose of a counterscreen is to sort out artefacts and off-target activity.
Series [16] addresses T3, Methionyl-tRNA synthetase, putative (Trypanosoma brucei brucei, UniProt Q38C91).
T3 sequence (Q38C91 whole entry): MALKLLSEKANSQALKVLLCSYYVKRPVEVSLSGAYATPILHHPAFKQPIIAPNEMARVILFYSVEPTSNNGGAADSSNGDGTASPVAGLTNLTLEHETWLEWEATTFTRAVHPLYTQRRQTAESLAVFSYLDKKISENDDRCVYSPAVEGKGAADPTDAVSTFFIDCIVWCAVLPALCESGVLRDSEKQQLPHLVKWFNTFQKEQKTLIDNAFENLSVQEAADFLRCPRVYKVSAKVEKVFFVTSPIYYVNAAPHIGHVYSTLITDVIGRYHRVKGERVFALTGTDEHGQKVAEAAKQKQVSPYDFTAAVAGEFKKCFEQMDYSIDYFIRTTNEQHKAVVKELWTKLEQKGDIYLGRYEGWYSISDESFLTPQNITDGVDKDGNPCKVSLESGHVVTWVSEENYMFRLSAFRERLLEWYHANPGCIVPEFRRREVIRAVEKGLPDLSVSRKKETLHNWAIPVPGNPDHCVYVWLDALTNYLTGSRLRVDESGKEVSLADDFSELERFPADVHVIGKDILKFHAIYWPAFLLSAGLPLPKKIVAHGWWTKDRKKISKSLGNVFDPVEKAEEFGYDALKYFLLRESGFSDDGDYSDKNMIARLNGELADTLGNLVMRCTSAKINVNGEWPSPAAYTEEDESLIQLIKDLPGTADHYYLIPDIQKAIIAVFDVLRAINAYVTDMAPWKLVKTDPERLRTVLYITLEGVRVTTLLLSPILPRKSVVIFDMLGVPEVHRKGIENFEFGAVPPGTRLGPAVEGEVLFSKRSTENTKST
The format is functional, Trypanosoma brucei brucei strain 927/4 GUTat10.1.

The nature of series [17]: Late stage counterscreen for inhibitors of Trypanosoma brucei methionyl tRNA synthetase (MetRS): Luminescence-based cell-based high throughput dose response assay to identify compounds that are cytotoxic to Jurkat human T lymphocyte cells. The format is functional.
Series [18] has as its target T3, Methionyl-tRNA synthetase, putative. The format is functional, Trypanosoma brucei brucei strain 927/4 GUTat10.1. This is another data set of the same source.

SMILES strings stand for the structures. Activity calls are given as the source filed them.

Sequence of Cytochrome P450 3A4 (P08684 whole entry): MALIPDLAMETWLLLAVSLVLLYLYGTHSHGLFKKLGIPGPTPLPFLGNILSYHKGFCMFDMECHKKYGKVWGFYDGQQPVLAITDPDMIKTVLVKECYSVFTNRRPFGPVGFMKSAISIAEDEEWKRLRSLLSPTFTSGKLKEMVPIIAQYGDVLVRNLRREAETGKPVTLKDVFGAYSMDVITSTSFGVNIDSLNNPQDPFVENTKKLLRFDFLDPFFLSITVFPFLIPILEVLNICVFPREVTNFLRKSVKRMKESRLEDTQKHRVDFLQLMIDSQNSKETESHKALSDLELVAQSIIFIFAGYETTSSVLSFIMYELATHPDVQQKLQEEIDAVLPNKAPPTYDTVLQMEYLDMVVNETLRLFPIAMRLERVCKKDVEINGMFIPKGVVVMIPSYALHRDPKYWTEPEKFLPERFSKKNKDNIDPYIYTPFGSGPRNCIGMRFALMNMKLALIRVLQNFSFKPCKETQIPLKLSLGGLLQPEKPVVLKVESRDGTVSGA
Sequence of fMet-Leu-Phe receptor (P21462 whole entry): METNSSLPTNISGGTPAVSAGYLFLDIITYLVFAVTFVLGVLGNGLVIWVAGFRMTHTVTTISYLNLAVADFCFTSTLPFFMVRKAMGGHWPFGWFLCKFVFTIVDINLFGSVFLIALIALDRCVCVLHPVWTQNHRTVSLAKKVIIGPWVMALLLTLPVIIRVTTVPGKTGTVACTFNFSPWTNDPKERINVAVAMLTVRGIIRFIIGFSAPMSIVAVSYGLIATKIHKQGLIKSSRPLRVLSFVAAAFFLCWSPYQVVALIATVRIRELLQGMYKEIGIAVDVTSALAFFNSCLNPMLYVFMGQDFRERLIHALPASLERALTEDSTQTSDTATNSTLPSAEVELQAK

For `Oc1ccc(-c2nccc(-c3cccs3)n2)cc1`, the EC50 in [1] and in series [3] was > 67.6 µM (inactive) each time. In addition, the AC50 in series [2] is 6.5 µM (active). The half-maximal cytotoxic concentration (CC50) in series [4] is 27.9 µM (active).

`Cc1c(C)c2cc(Cl)c(O)c(CN3CCCCC3)c2oc1=O`: in [5], the Ki is > 66.7 µM (inactive).

For `C[C@@H]1CN([C@@H](C)CO)C(=O)c2c(c3ccccc3n2C)-c2ccccc2CO[C@@H]1CN(C)Cc1cccc(F)c1`, the figures for the AC50 in series [6] and in series [7] were 23.5 µM (active) and 3.5 µM (active), respectively.

As to `Cc1ccccc1-n1ncc2c(SCC(=O)N3c4ccccc4CC3C)ncnc21` (stereo not given), the results for the IC50 in [8], in [10] and in series [13] were 11 µM (active), 11.7 µM (active) and > 50 µM (not active), respectively. In addition, the figures for the AC50 result in series [9], in [12] and in series [14] were “inconclusive”, 15.4 µM (active) and 15.4 µM (active), respectively. For the same compound, the EC50 in [11] was > 53 µM (inactive).

In the case of `O=C(NCc1nc2ccccc2[nH]1)C1=C[C@@H](C2CC2)C[C@@H](OCc2ccc(CO)cc2)O1`, the IC50 in series [15] is 83.3 µM (inactive); in series [16], 0.811 µM (active); in series [17], > 83.3 µM (inactive); in series [18] it was 1.62 µM (active).

As for `COc1ccc2c3c(n(C)c2c1)[C@H](CO)NCC31CN(Cc2ccc(-c3ccccn3)cc2)C1`, the AC50 in series [6] is 11.6 µM (active); in series [7], 1.15 µM (active).

By AC50 is commonly meant the midpoint of the concentration-response curve, whichever way the signal moves. As usually defined, the CC50 is the concentration giving 50% cytotoxicity. The term Ki denotes the dissociation constant of the complex between target and ligand, obtained from inhibition or displacement.
